Experimental data as given in patent publication US9751854B2 (Millennium Pharmaceuticals, Inc., priority 2014, dated 2017).

Tests used:
NCI-H1650 cell line = experiment: Cellular anti-proliferative assay of VPS34 inhibitors in combination with a second therapeutic agent (Cell Titer Glo, 72 hrs); format: cell-based, human; settings: NCI H-1650; for Blending Synergy: in combination with Erlotinib (Compound Y)
Experimental: (§1) Example 57: Cellular Assay for Anti-proliferative Activity of VPS34 Inhibitors in Combination with a Second Therapeutic Agent
(§2) Cells were plated in 25 μl of media in 384 well plates at 1,000 cells per well (A431, PC9, and […] cell lines), 1,500 cells per well (NCI-H1975) or 2,000 cells per well (NCI-H1650). The plates were incubated for 24 hrs at 37° C., 6% CO2. The test compounds (see Table 38 below) were diluted serially, and 62.5 nL of each compound solution (or DMSO, if it is a single agent experiment) is added so the total added to the cells is 125 nL. Cell plates were incubated for 72 hrs at 37° C., 6% CO2. Cell Titer Glo reagent (Promega) was added. The plates were then incubated for 10 minutes at room temperature before luminescence was read on a plate reader such as the Pherastar Plus, Pherastar FS, or LEADSeeker imaging system.
(§3) Bliss antagonism was defined similarly.
(§4) Bliss dependence was defined as the percent cell survival at a certain dose combination divided by the percent cell survival predicted by Bliss independence. More specifically, the Bliss dependence is vAB/(vA*vB), where vAB is the viability with drug A and drug B added, while vA and vB are the viabilities with each drug alone. The dose for the combination used in this study is the inflection point for each drug alone.
(§5) Another way to evaluate additivity is through consideration of Loewe additivity. A difference between Bliss independence and Loewe additivity evaluations of drug combination data is that Bliss independence evaluates whether two drugs interact at all (the null hypothesis is that the mechanisms are entirely independent) and Loewe additivity evaluates whether two drugs interact in an additive fashion (the null hypothesis is that the two drugs work by identical mechanisms). For Bliss independence, the boundary between additivity and synergy must be measured. For Loewe additivity, this boundary is assumed to be at a value of 1. Thus, Bliss independence provides a boundary between antagonism and synergy or additivity. Loewe additivity provides a boundary between synergy and independence or antagonism.
(§6) Synergy can also be measured by nonlinear blending synergy. Nonlinear blending synergy [Peterson, J. J. and Novik, S. J. J Recept Signal Transduct Res, 27, 12-146 (2007))] is found by considering the percent cell death values along the nonlinear blending plot. If the maximum cell death occurs between the endpoints, then the blending synergy is the difference between the maximum cell death for the combined drugs and the maximum cell death for the either drug alone.
(§7) A derivative of Loewe additivity is the Combination Index, I (see Chou T. C., Talalay P. Adv. Enzyme Reg., 22: 27-55 (1984) and Berenbaum M. C. J. Theor. Biol., 114:413-431 (1985)). This measure is based on the shape of the isobologram which represents 50% viability (for a review of the use of isobolograms in analysis of drug combinations, see Tallarida, R. J. J. Pharm. Exp. Therap. 319:1-7 (2006)).
(§8) The results in Table 38A were summarized by categorizing the Combination Index, I. A mean Combination Index in the range (0.7-1.3) is classified as Additivity. A mean in the range (0-0.7) is classified as Synergy. A mean in the range (1.3-2) is classified as Subadditivity. A mean greater than 2 is classified as Antagonism. […] In this case, the Nonlinear Blending Synergy is used instead to generate a call (Table 38B). The categorization is similar to the Combination Index. A Nonlinear Blending Synergy within the range (−20, 20) is classified as Additive. A value below −20 is classified as Antagonism, while a value above 20 is classified as Synergy.

NCI-H1975 cell line = experiment: as above; format: cell-based, human
Experimental: as §1, §2, §3, §4, §5, §6, §7, §8

PC9 cell line = experiment: as above; format: cell-based, human
Experimental: as §1, §2, §3, §4, §5, §6, §7, §8

human VPS34 = human VPS34 (Homo sapiens (Human), UniProt Q8NEB9); experiment: Human VPS34 enzyme assay (Adapta TR-FRET ADP detection); format: biochemical; settings: IC50 range class
Chain of human VPS34 (Q8NEB9 whole entry): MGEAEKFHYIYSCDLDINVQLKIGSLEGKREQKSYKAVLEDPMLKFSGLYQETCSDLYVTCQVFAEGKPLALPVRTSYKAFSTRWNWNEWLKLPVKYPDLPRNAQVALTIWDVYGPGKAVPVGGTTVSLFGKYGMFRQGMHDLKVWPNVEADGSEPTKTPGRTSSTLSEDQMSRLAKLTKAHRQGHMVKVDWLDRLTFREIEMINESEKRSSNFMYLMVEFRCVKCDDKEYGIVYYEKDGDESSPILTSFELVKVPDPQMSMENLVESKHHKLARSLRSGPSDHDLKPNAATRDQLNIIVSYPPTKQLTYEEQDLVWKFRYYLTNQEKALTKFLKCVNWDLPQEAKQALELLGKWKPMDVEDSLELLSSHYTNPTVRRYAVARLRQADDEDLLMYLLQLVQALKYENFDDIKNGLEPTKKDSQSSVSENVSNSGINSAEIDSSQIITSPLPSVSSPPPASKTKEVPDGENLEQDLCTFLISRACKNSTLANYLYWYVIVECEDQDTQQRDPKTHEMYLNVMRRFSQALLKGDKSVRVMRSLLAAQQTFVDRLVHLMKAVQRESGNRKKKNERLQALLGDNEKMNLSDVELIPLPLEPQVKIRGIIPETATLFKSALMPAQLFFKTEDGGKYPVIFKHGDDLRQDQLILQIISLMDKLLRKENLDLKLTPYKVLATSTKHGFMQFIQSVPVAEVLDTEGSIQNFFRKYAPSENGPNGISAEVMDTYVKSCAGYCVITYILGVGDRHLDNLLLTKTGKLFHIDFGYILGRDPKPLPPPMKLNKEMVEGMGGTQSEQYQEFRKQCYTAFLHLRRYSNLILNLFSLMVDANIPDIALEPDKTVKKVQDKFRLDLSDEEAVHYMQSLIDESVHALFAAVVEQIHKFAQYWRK

A431 cell line = experiment: Cellular anti-proliferative assay of VPS34 inhibitors in combination with a second therapeutic agent (Cell Titer Glo, 72 hrs); format: cell-based
Experimental: as §1, §2, §3, §4, §5, §6, §7, §8

[1] = in combination with Afatinib (Compound Y)
[2] = in combination with Afatinib, call from Combination Index
[3] = in combination with Erlotinib (Compound Y)
[4] = in combination with Erlotinib, call from Combination Index
[5] = in combination with AZD9291 (Compound Y)
[6] = in combination with CO-1686 (Compound Y)
[7] = in combination with AZD9291, call from Combination Index
[8] = in combination with CO-1686, call from Combination Index

SMILES | Combination Index (NCI-H1650 cell line; [1]) | Blending Synergy (NCI-H1650 cell line) | Combination Index (NCI-H1975 cell line; [1]) | Combination Index (PC9 cell line; [1]) | Meaning (PC9 cell line; [2]) | Combination Index (PC9 cell line; [3]) | Meaning (PC9 cell line; [4]) | IC50 (human VPS34) | Combination Index (A431 cell line; [1]) | Meaning (A431 cell line; [2]) | Combination Index (A431 cell line; [3]) | Meaning (A431 cell line; [4]) | Combination Index (NCI-H1650 cell line; [5]) | Combination Index (NCI-H1650 cell line; [6]) | Combination Index (NCI-H1975 cell line; [5]) | Combination Index (NCI-H1975 cell line; [6]) | Combination Index (PC9 cell line; [5]) | Meaning (PC9 cell line; [7]) | Combination Index (PC9 cell line; [6]) | Meaning (PC9 cell line; [8]) | also measured
CC(=O)Nc1cc(-c2cnc(C)c(NS(=O)(=O)N(C)C)c2)ccn1 [Compound I-32, N-{5-[(dimethylsulfamoyl)amino]-6-methyl-3,4′-bipyridin-2′-yl}acetamide] | 0.40 | 22.29 | 0.66 | 0.79 | Additivity (A mean Combination Index in the range (0.7-1.3) is classified as Additivity) | 0.78 | Additivity (A mean Combination Index in the range (0.7-1.3) is classified as Additivity) | < 0.01 µM | 0.25 | Synergy (A mean in the range (0-0.7) is classified as Synergy) | 0.73 | Additivity (A mean Combination Index in the range (0.7-1.3) is classified as Additivity) |  |  |  |  |  |  |  |  | 
CC(=O)Nc1cc(-c2cnc(C)c(NS(=O)(=O)c3ccc(F)cc3F)c2)ccn1 [Compound I-41, N-(5-{[(2,4-difluorophenyl)sulfonyl]amino}-6-methyl-3,4′-bipyridin-2′-yl)acetamide] | 0.72 | 20.5 | 0.58 | 1.02 | Additivity (A mean Combination Index in the range (0.7-1.3) is classified as Additivity) | 1.02 | Additivity (A mean Combination Index in the range (0.7-1.3) is classified as Additivity) | < 0.01 µM | 0.24 | Synergy (A mean in the range (0-0.7) is classified as Synergy) | 0.38 | Synergy (A mean in the range (0-0.7) is classified as Synergy) | 0.92 | 0.58 | 0.45 | 0.51 | 0.92 | Additivity (A mean Combination Index in the range (0.7-1.3) is classified as Additivity) | 0.84 | Additivity (A mean Combination Index in the range (0.7-1.3) is classified as Additivity) | Combination Index (A431 cell line; [5]): 0.62; Meaning (A431 cell line; [7]): Synergy (A mean in the range (0-0.7) is classified as Synergy); Combination Index (A431 cell line; [6]): 0.74; Meaning (A431 cell line; [8]): Additivity (A mean Combination Index in the range (0.7-1.3) is classified as Additivity)
CC(=O)Nc1cc(-c2cnc(C)c(NS(=O)(=O)c3ccc(Cl)cc3F)c2)ccn1 [Compound I-94, N-(5-{[(4-chloro-2-fluorophenyl)sulfonyl]amino}-6-methyl-3,4′-bipyridin-2′-yl)acetamide] | 0.65 | 23.69 | 0.54 | 1.04 | Additivity (A mean Combination Index in the range (0.7-1.3) is classified as Additivity) | 0.91 | Additivity (A mean Combination Index in the range (0.7-1.3) is classified as Additivity) | < 0.01 µM | 0.23 | Synergy (A mean in the range (0-0.7) is classified as Synergy) | 0.38 | Synergy (A mean in the range (0-0.7) is classified as Synergy) |  |  |  |  |  |  |  |  | 
CC(=O)Nc1cc(-c2cnc(Cl)c(NS(=O)(=O)c3ccc(F)cc3F)c2C)ccn1 [Compound I-153, N-(6-chloro-5-{[(2,4-diflourophenyl)sulfonyl]amino}-4-methyl-3,4′-bipyridin-2′-yl)acetamide] | 0.64 | 23.76 |  | 1.17 | Additivity (A mean Combination Index in the range (0.7-1.3) is classified as Additivity) | 0.97 | Additivity (A mean Combination Index in the range (0.7-1.3) is classified as Additivity) | < 0.01 µM | 0.23 | Synergy (A mean in the range (0-0.7) is classified as Synergy) |  |  |  |  |  |  |  |  |  |  | Blending Synergy (NCI-H1975 cell line; [1]): 8.72; Blending Synergy (A431 cell line; [3]): 16.3; Meaning (A431 cell line; in combination with Erlotinib, call from Nonlinear Blending Synergy): Additivity
Cc1ncc(-c2ccnc(Nc3ccncn3)c2)cc1NS(=O)(=O)N(C)C [Compound I-217, N,N-dimethyl-N′-[6-methyl-2′-(pyrimidin-4-ylamino)-3,4′-bipyridin-5-yl]sulfuric diamide] | 0.31 | 28.65 | 0.52 | 0.97 | Additivity (A mean Combination Index in the range (0.7-1.3) is classified as Additivity) | 0.87 | Additivity (A mean Combination Index in the range (0.7-1.3) is classified as Additivity) | < 0.01 µM | 0.36 | Synergy (A mean in the range (0-0.7) is classified as Synergy) | 0.46 | Synergy (A mean in the range (0-0.7) is classified as Synergy) |  |  |  |  |  |  |  |  | 
Cc1nccc(Nc2cc(-c3cnc(Cl)c(NS(=O)(=O)c4ccc(F)cc4F)c3C)ccn2)n1 [Compound I-299, N-{6-chloro-4-methyl-2′-[(2-methylpyrimidin-4-yl)amino]-3,4′-bipyridin-5-yl}-2,4-difluorobenzenesulfonamide] | 0.47 | 26.93 | 0.68 | 1.37 | Subadditivity (A mean in the range (1.3-2) is classified as Subadditivity) | 1.18 | Additivity (A mean Combination Index in the range (0.7-1.3) is classified as Additivity) | 0.01 to 0.05 µM | 1.01 | Additivity (A mean Combination Index in the range (0.7-1.3) is classified as Additivity) | 1.01 | Additivity (A mean Combination Index in the range (0.7-1.3) is classified as Additivity) | 0.87 | 0.43 | 0.54 | 0.72 | 1.17 | Additivity (A mean Combination Index in the range (0.7-1.3) is classified as Additivity) | 1.00 | Additivity (A mean Combination Index in the range (0.7-1.3) is classified as Additivity) | Combination Index (A431 cell line; [5]): 1.00; Meaning (A431 cell line; [7]): Additivity (A mean Combination Index in the range (0.7-1.3) is classified as Additivity); Combination Index (A431 cell line; [6]): 1.02; Meaning (A431 cell line; [8]): Additivity (A mean Combination Index in the range (0.7-1.3) is classified as Additivity)
